According to US20100280120A1, “COMPOUND INDUCING ANGIOGENESIS RESPONSE IN ISCHAEMIC TISSUES” (Green Cross Therapeutics Private Limited, priority 2007, published 2010):

Legend:
[1] = test system: primary cells or cell lines from various origin (human cell lines); assay: In vitro toxicity screening of primary cells or cell lines, Trypan blue-exclusion viability test; assay type: cell-based
Description: To study the toxic effects of compound, a wide spectrum of primary cells or cell lines from various origin were screened for viability, using Trypan blue-exclusion test. Cells were grown in cultures in DMEM/F-12 (1:1) or RPMI 1640 media supplemented with 10% FBS, insulin (0.1 units/ml), L-glutamine (2 mM), sodium pyruvate (100 μg/ml), non-essential amino acids (100 μM), penicillin (100 units/ml) and streptomycin ([…]). Cells were incubated at 37° C. in a humidified atmosphere of 5% CO2.
Different cells from different origins were cultured in vitro. Various doses of GC-S were added in culture medium. After 24 h number of surviving cells was counted. Each experiment was performed in triplicate and the values agreed well with those of independent experiments

[2] = test system: binding of human VEGF to its receptor on A549 cells; assay: Angiogenic potential: binding of human VEGF to its receptors on A549 cells (anti-VEGF immunofluorescence, confocal); assay type: cell-based
Description: The angiogenic potential of compound was tested by binding human VEGF to its putative receptors. Human lung epithelial cells (A549 which are highly metastatic and therefore angiogenic in nature) were grown on coverslip in DMEM/F-12 (1:1) or RPMI 1640 media supplemented with 10% FBS, insulin (0.1 units/ml), L-glutamine (2 mM), sodium pyruvate (100 μg/ml), non-essential amino acids (100 μM), penicillin (100 units/ml) and streptomycin ([…]). Cells were incubated at 37° C. in a humidified atmosphere of 5% CO2. The pH of the medium was maintained at 6.2 for the binding assay of VEGF to its receptor in the presence of compound. The cells were pre-treated with media alone or with 25 μg/ml compound for 30 min. The cells were then incubated with 10 ng/ml human VEGF for further 30 min at 37° C. in a humidified atmosphere of 5% CO2. The cells were fixed and stained with anti-VEGF antibody coupled with Alexaflour 488. The cells were visualized in Zeiss-confocal microscope.

Swiss albino mice = assay: Systemic toxicity in mice: serum toxicity marker enzymes (GOT, GPT, ALP); conditions: doxorubicin 5 mg/kg body weight
Description: All animal experiments were performed following ‘Principles of laboratory animal care’ (NIH publication No. 85-23, revised in 1985) as well as specific Indian laws on ‘Protection of Animals’ under the provision o authorized investigators. Swiss albino mice (˜20 g each; 10-12 weeks old; 3 mice in each group) were randomly divided into (i) untreated set (i.v. injected with PBS as vehicle only) and (ii) drug-treated set (Compound of this invention 0.1, 0.3, 1.0, 3.0, 10 and 30 mg/kg body weight) for 14 days. Untreated mice received sterile PBS as carrier vehicle. Doxorubicin (5 mg/kg body weight) was used as positive control for toxicity assays.
For statistical analysis, one-way analysis of variance (ANOVA) was conducted, followed by the Newman-Keuls multiple comparison test. Mean differences with p<0.05 were considered statistically significant.
Hepato and cardio toxicity due to drug regimens are the shortfall in many instances. The serum levels of GOT, GPT and ALP are clinical indicators of drug-induced toxicity. Blood samples were collected from the retro-orbital plexus of normal and the subject compound-treated mice. Total serum glutamate oxaloacetate transaminase ([…]), glutamate pyruvate transaminase (SGPT), and alkaline phosphate were assayed according to standard protocols.
Serum GOT, GPT and ALP activities as a marker of systemic toxicity were measured from blood of untreated or treated mice.

Row | SMILES | Toxicity to cells ([1]; 100 and 200 μg/mL doses, below significant killing) | Toxic effects on cells ([1]; doses 12.5 to 200 μg/mL range) | Percent of cell killing ([1]; up to 50 μg/mL doses, 24 h, Trypan blue exclusion) | Increase of binding of VEGF to its receptor ([2]; A549 cells pre-incubated with 25 μg/ml compound 30 min, then 10 ng/ml human VEGF 30 min, pH 6.2) | VEGF binding on the membrane of normal A549 cell after compound treatment ([2]; A549 cells, compound alone, no added VEGF) | ALP (Swiss albino mice) [KA units] | SGOT (Swiss albino mice) [IU/dL] | SGPT (Swiss albino mice) [IU/dL] | Levels of serum GOT and GPT (Swiss albino mice; positive control, p<0.05)
1 | NCCCCC(N)C(=O)O (stereo not drawn) [Compound of this invention] | mild toxicity | no toxic effects | less than 5% | 10-15 times | remains unaltered |  |  |  | 
2 | COc1cccc2c1C(=O)c1c(O)c3c(c(O)c1C2=O)C[C@@](O)(C(=O)CO)C[C@@H]3O[C@H]1C[C@H](N)[C@H](O)[C@H](C)O1 [Doxorubicin] |  |  |  |  |  | 43 | 79 | 68 | significantly increased
